According to ChEMBL document CHEMBL5046276 (J Med Chem, 2022):

Experiments:
[1] = Cytotoxicity against human HepG2 cells incubated for 72 hrs by CCK-8 assay
Plasmodium falciparum [2] = experiment: Antimalarial activity against asexual blood stage chloroquine-resistant Plasmodium falciparum Dd2 assessed as parasite growth inhibition incubated for 72 hrs by SYBR Green I staining based fluorescence analysis; type: functional, organism-based; conditions: Dd2, 72 h
[3] = Selectivity index, ratio of IC50 for cytotoxicity against human HepG2 cells to IC50 for antimalarial activity against asexual blood stage wild-type Plasmodium falciparum 3D7; type: toxicity, cell-based; conditions: read-out: Ratio IC50
[4] = Selectivity index, ratio of IC50 for cytotoxicity against HEK293T cells to IC50 for antimalarial activity against asexual blood stage wild-type Plasmodium falciparum 3D7; type: toxicity, cell-based; conditions: human, read-out: Ratio IC50
Plasmodium falciparum [5] = experiment: Antimalarial activity against asexual blood stage wild-type Plasmodium falciparum 3D7 assessed as parasite growth inhibition incubated for 72 hrs by SYBR Green I staining based fluorescence analysis; type: functional, organism-based; conditions: 3D7, 72 h
[6] = Cytotoxicity against HEK293T cells incubated for 72 hrs by CCK-8 assay; conditions: human
Plasmodium falciparum [7] = experiment: Antimalarial activity against asexual blood stage sulfadoxine-pyrimethamine/mefloquine-resistant Plasmodium falcipuram CP286 assessed as parasite growth inhibition incubated for 72 hrs by SYBR Green I staining based fluorescence analysis; type: functional, organism-based; conditions: CP286, 72 h
Plasmodium falciparum [8] = experiment: Antimalarial activity against asexual blood stage quinine-resistant Plasmodium falcipuram C2A assessed as parasite growth inhibition incubated for 72 hrs by SYBR Green I staining based fluorescence analysis; type: functional, organism-based
Plasmodium falciparum [9] = experiment: Antimalarial activity against asexual blood stage chloroquine-resistant Plasmodium falcipuram GB4 assessed as parasite growth inhibition incubated for 72 hrs by SYBR Green I staining based fluorescence analysis; type: functional, organism-based; conditions: GB4, 72 h
Plasmodium falciparum [10] = experiment: (§1) Antimalarial activity against ART-resistant Plasmodium falcipuram 6320 harbouring C580Y mutant infected in human RBC assessed as reduction in parasitemia in blood smear by measuring parasite survival ratio at ring stage at upto 700 nM incubated for 6 hrs followed by compound washout and replacement with fresh medium without compounds and measured after 66 hrs by ring stage survival assay; type: functional; conditions: dose nM <=700
Plasmodium falciparum [11] = experiment: as §1, with “6218” for “6320”; type: functional; conditions: dose nM <=700
Plasmodium falciparum [12] = experiment: as §1, with “wild-type” for “ART-resistant”, “3D7” for “6320 harbouring C580Y mutant”; type: functional; conditions: dose nM <=700
[13] = Metabolic stability in mouse liver microsomes assessed as intrinsic clearance at […] incubated for 45 mins in presence of NADPH by LC/MS analysis; type: ADME, Microsome; conditions: read-out: CLH
[14] = Metabolic stability in mouse liver microsomes assessed as half life at […] incubated for 45 mins in presence of NADPH by LC/MS analysis; type: ADME, Microsome; conditions: liver microsomes

SMILES	IC50 at 72 h [1] [nM]	IC50 (Plasmodium falciparum [2]) [nM]	selectivity ratio [3]	selectivity ratio [4]	IC50 (Plasmodium falciparum [5]) [nM]	IC50 at 72 h [6] [nM]	IC50 (Plasmodium falciparum [7]) [nM]	IC50 (Plasmodium falciparum [8]) [nM]	IC50 (Plasmodium falciparum [9]) [nM]	Activity (Plasmodium falciparum [10]) [%]	Activity (Plasmodium falciparum [11]) [%]	Activity (Plasmodium falciparum [12]) [%]	CLint scaled [13] [mL/min/kg]	half-life [14] [h]
O=C(NO)c1cnc(N2CCC3(CN(CC4CCCC4)C3)C2)nc1	1060	18.9	64											
O=C(NO)c1cnc(N2CCC3(CN(Cc4cccc5cnccc45)C3)C2)nc1	2210	12.1	133	97	16.6	1610								
O=C(NO)c1cnc(N2CCC3(CN(Cc4cncc5ccccc45)C3)C2)nc1	2230	12.4	258	934	8.63	8060								
Cn1nc(CN2CC3(CCN(c4ncc(C(=O)NO)cn4)C3)C2)c2ccccc21	2130	12.7	218	767	9.79	7310								
C[C@H]1[C@@H](O)O[C@@H]2O[C@@]3(C)CC[C@H]4[C@H](C)CC[C@@H]1[C@@]24OO3 [ARTENIMOL]		2.78			2.85		8.1	2.08	2.34					
O=C(NO)c1cnc(N2CCC3(CN(Cc4ccc5ccccc5c4)C3)C2)nc1	2130	13.2	215	442	9.89	4370								
O=C(NO)c1cnc(N2CCC3(CN(Cc4ccc(-c5ccccc5)cc4)C3)C2)nc1	3140	43.4	137	174	22.9	3990								
O=C(NO)c1cnc(N2CCC3(CN(Cc4cc5ccccc5s4)C3)C2)nc1	3610	8.57	625	794	5.78	4590								
O=C(NO)c1cnc(N2CCC3(CN(Cc4ccoc4)C3)C2)nc1	6030	40.1	160	431	37.6	16200								
Cn1cc(CN2CC3(CCN(c4ncc(C(=O)NO)cn4)C3)C2)c2ccncc21	> 20000	9.59	> 1370	> 1370	4.57	> 20000								
O=C(NO)c1cnc(N2CCC3(CN(Cc4ccccn4)C3)C2)nc1	8370	30.8	188	> 449	44.6	> 20000								
Cn1cc(CN2CC3(CCN(c4ncc(C(=O)NO)cn4)C3)C2)c2ccccc21	720	4.54	157	331	4.59	1520								
O=C(NO)c1cnc(N2CCC3(CN(Cc4c5ccccc5cc5ccccc45)C3)C2)nc1	31000	5.56		49	9.31	460								
Cc1ccc2c(CN3CC4(CCN(c5ncc(C(=O)NO)cn5)C4)C3)cn(C)c2c1	500	3.25	112	247	4.45	1100								
O=C(NO)c1cnc(N2CCC3(CN(Cc4cnc5ccccn45)C3)C2)nc1	20000	8.5	> 1640	195	12.2	2370								
Cn1cc(CN2CC3(CCN(c4ncc(C(=O)NO)cn4)C3)C2)c2cnccc21	> 20000	14.2	> 908	> 908	22	> 20000								
O=C(NO)c1cnc(N2CCC3(CN(Cc4ccc5ncccc5c4)C3)C2)nc1	1540	11.9	90	102	17.1	1740								

SMILES	IC50 at 72 h [1] [nM]	IC50 (Plasmodium falciparum [2]) [nM]	selectivity ratio [3]	selectivity ratio [4]	IC50 (Plasmodium falciparum [5]) [nM]	IC50 at 72 h [6] [nM]	IC50 (Plasmodium falciparum [7]) [nM]	IC50 (Plasmodium falciparum [8]) [nM]	IC50 (Plasmodium falciparum [9]) [nM]	Activity (Plasmodium falciparum [10]) [%]	Activity (Plasmodium falciparum [11]) [%]	Activity (Plasmodium falciparum [12]) [%]	CLint scaled [13] [mL/min/kg]	half-life [14] [h]
O=C(NO)c1cnc(N2CCC3(CN(Cc4cccc5ccncc45)C3)C2)nc1	1840	5.84	300	152	6.13	930								
Cn1cc(CN2CC3(CCN(c4ncc(C(=O)NO)cn4)C3)C2)c2cccnc21	> 12200	7.83	> 1170	594	10.4	6170								
COc1ccc2c(CN3CC4(CCN(c5ncc(C(=O)NO)cn5)C4)C3)cn(C)c2c1	630	5.1	106	117	5.97	700								
O=C(NO)c1cnc(N2CCC3(CN(Cc4cccc5ccccc45)C3)C2)nc1	> 770	4.38	> 173	605	4.46	2700								
O=C(NO)c1cnc(N2CCC3(CN(CC4CCCCC4)C3)C2)nc1	1030	19	46	160	22.2	3560								
O=C(NO)c1cnc(N2CCC3(CN(Cc4ccsc4)C3)C2)nc1	2460	3.86	394	739	6.25	4620								
O=C(NO)c1cnc(N2CCC3(CN(Cc4cccnc4)C3)C2)nc1	11400	2230	243	> 426	47	> 20000								
C[C@@H]1CC[C@H]2[C@@H](C)C(=O)O[C@@H]3O[C@@]4(C)CC[C@@H]1[C@]32OO4 [ARTEMISININ]										8	8	0.1		
Cl.Cn1cc(CN2CC3(CCN(c4ncc(C(=O)NO)cn4)C3)C2)c2ccc(Br)cc21	750	2.39	381	365	1.97	720							13.7	6.64
O=C(NO)c1cnc(N2CCC3(CN(Cc4ccco4)C3)C2)nc1	10900	116	144	> 263	76.2	20000								
Cl.O=C(NO)c1cnc(N2CCC3(CN(Cc4cnc5ccccc5c4)C3)C2)nc1	2040	2.58	537	953	3.8	3620							410	0.222
O=C(NO)c1cnc(N2CCC3(CN(Cc4cccs4)C3)C2)nc1	2510	59.1	165	> 324	15.2	> 4930								
O=C(NO)c1cnc(N2CCC3(CN(Cc4csc5ccccc45)C3)C2)nc1	490	7.88	49	257	10	2580								
O=C(NO)c1cnc(N2CCC3(CN(Cc4ccccc4)C3)C2)nc1	420	66.9	16	78	25.5	1980								
O=C(NO)c1cnc(N2CCC3(CN(Cc4cccc5cccnc45)C3)C2)nc1	2660	16.2	202	423	13.2	5580								
O=C(NO)c1cnc(N2CCC3(CN(Cc4ccncc4)C3)C2)nc1	20000	8420	> 146	> 146	137	> 20000								
O=C(NO)c1cnc(N2CCC3(CN(Cc4cc5ccccc5o4)C3)C2)nc1	3890	5.16	543	785	7.16	5620								
